Results on five compounds are retold here after US20040127435A1, “Uses for inhibitors of inosine monophosphate dehydrogenase” (REGENTS OF THE UNIVERSITY OF CALIFORNIA, priority 2002, published 2004).

In series [1] the test system is MTAP-deleted lung cancer cells (A549). Kind of series: Cell proliferation of MTAP-deleted A549 cells by MTT assay, mizoribine base pre-treatment then L-alanosine. The note with it: Homo sapiens. It is filed as cell-based. The method, then: MTAP-deleted lung cancer cells (A549) were pre-treated for 24 hours with control vehicle (square), or the indicated concentrations of mizoribine-base (10 μM, 25 μM and 50 μM). After 24 hours in culture L-alanosine was added at decreasing concentrations (½ dilutions) starting at 40 μM. Cell were then incubated for an additional 48 hours. Cell proliferation was tested by the MTT assay. As indicated by FIG. 4, the IC50 and IC90 (amount of drug needed to block proliferation by 50% or 90%) of L-alanosine declines in the presence of mizoribine base.

The test system of series [2] is CLL cells. Kind of series: CLL cell viability by MTT dye assay. It is filed as cell-based. The note with it: Homo sapiens, 24 h, read-out: cell viability. As to the method:
Indanocine is commercially available from Calbiochem (Cat. No. 402080). Leoni L. M., et al., J Natl Cancer Inst. 92:217-224 (2000). Hua X. H., et al., Cancer Res. 61:7248-7254 (2001). CLL cells were isolated and cultured as described above. CLL cells at a density of 1×10^6 ml were incubated for 24 hours in RPMI 1640 medium supplemented with 10% fetal bovine serum in the presence of 1 μM indanocine (abbreviated 178) and either 0, 1, or 10 μM mizoribine. Cell viability was assessed by the MTT [3-(4,5-dimethylthiazol-2-yl)-2,5-diphenyltetrazolium bromide) dye assay.

Series [3] has as its system MTAP-deleted chronic myelogenous leukemia cells (K562). Briefly: Cell proliferation of MTAP-deleted K562 cells by MTT dye assay. The conditions noted are these: read-out: IC50 (amount of drug needed to block proliferation by 50%). It is filed as cell-based. As to the method:
MTAP-deleted chronic myelogenous leukemia cells (K562) were pre-treated for the indicated times (24, 48, 72 hours) with concentrations of mizoribine (squares) or mizoribine base (triangles) from 200 μM to 0.5 μM. At the end of the incubation time cell proliferation was tested by the MTT dye assay. As indicated by FIG. 3, the IC50 (amount of drug needed to block proliferation by 50%) of mizoribine or its base progressively declines as the time of exposure to drug increases. After 48 hours of incubation with mizoribine or mizoribine base, the IC50 for the drug is approximately 100 micromolar. After 72 hours of incubation with mizoribine or mizoribine base, the IC50 for the drug is approximately 10 micromolar.

For series [4] the following is noted: in vivo; cited from earlier work.
A further series deals with activated PBL. Kind of series: α-tubulin polymerization assay in PBL activated with anti-CD3 and anti-CD28 antibodies. It is filed as cell-based, human. The conditions noted are these: PBL activated 24 hrs with anti-CD3 and anti-CD28, paclitaxel for one hour. The method, then:
(§1) Peripheral blood from CLL patients or normal donors was layered on top of Ficoll-Paque Plus (Pharmacia, NJ) and centrifuged at 1200×g for twenty minutes. The enriched peripheral blood mononuclear cells (PBL) were washed several times with Ca++, Mg++-free HBSS.
(§2) All primary cells were cultured in RPMI 1640 medium with 20% fetal bovine serum (regular medium) at a density of 2-5×10^6 cell/ml. In some cases, the PBL were stimulated for 24 hours with 1 μg/ml anti-CD3 and anti-CD28 antibodies (Alexis, San Diego, Calif.) prior to immunoblot analysis.
(§3) α-tubulin Polymerization Assay. For each data point, 2×10^6 of cells were incubated in 2 ml of regular medium containing drugs for various periods of time. The cells were then washed twice at room temperature, and resuspended in 50 μl of α-tubulin extraction buffer (1 mM MgC2, 2 m MEGTA, 0.5% NP-40, 20 mM Tris-HCl, pH=6.8) supplemented with 2 mM phenylmethysulfonyl fluoride, and a protease inhibitor cocktail (Sigma). After a brief but vigorous vortex, the lysates were incubated at room temperature for 5 minutes, and then centrifuged at 16,000×g for 5 minutes to separate the soluble from polymerized α-tubulin. The supernatant and pellet fractions were resolved on 10-20% pre-cast tris-glycine gels (Novex, San Diego, Calif.) and then subjected to immune blotting with a specific anti-α-tubulin antibody. […]

In series [5] the test system is normal PBL (peripheral blood mononuclear cells). Kind of series: α-tubulin polymerization assay in normal PBL (soluble vs particulate fraction, immunoblot). It is filed as cell-based, human. The conditions noted are these: normal resting PBL, paclitaxel for one hour. As to the method: as §1, §2, §3
In series [6] the test system is CLL cells. Briefly: α-tubulin polymerization assay in CLL cells. It is filed as cell-based, human. The note with it: paclitaxel. As to the method: Lymphocyte Cultures. The Institutional Review Board of the University of California, San Diego approved this study, and all patients gave informed written consent to participation. Subjects had CLL according to National Cancer Institute (NCI) criteria of any Rai stage. None of the patients were in active chemotherapeutic treatments. Flow cytometric analysis determined that all specimens contained more than 90% CD5+CD19+B cells.
as §1, §2
α-tubulin Polymerization Assay. For each data point, 2×10^6 of cells were incubated in 2 ml of regular medium containing drugs for various periods of time. The cells were then washed twice at room temperature, and resuspended in 50 μl of α-tubulin extraction buffer (1 mM MgC2, 2 m MEGTA, 0.5% NP-40, 20 mM Tris-HCl, pH=6.8) supplemented with 2 mM phenylmethysulfonyl fluoride, and a protease inhibitor cocktail (Sigma). […]

[7] abbreviates: A549, 48 h, A549, without mizoribine base, 48 hours L-alanosine.
[8] abbreviates: A549, A549, 24 hours pre-treatment with 10 micromolar mizoribine base.
The mark [9] stands for this setting: A549, A549, 24 hours pre-treatment with 25 micromolar mizoribine base.
[10] abbreviates: A549, A549, 24 hours pre-treatment with 50 micromolar mizoribine base.

“Also recorded” adds a separate entry of the source. Like-named read-outs stand apart in the source and are kept apart here.

Regarding `N[C@@H](CN(O)N=O)C(=O)O` [L-alanosine], the IC50 was 0.5 µM in series [1] (setting [7]), 0.5 µM in series [1] (setting [8]), 0.25 µM in series [1] (setting [9]) and 0.15 µM in series [1] (setting [10]). Moreover, the 90% effect concentration (IC90) was found to be 20 µM in series [1] (setting [7]), 9 µM in series [1] (setting [8]), 6 µM in series [1] (setting [9]) and 4 µM in series [1] (setting [10]).

Take `COc1cc2c(c(N)c1OC)C(=O)/C(=C\c1cc(C)c(O)c(C)c1)C2` [indanocine]: in the series with CLL cells [2], the viability at 1 µM came out at 24%.

Take `NC(=O)c1[nH]cnc1O` [mizoribine base, mizoribine aglycone]: the IC50 is ~100 µM in series [3] (K562, 48 hours of incubation) and ~10 µM in series [3] (K562, 72 hours of incubation).

`NC(=O)c1ncn([C@@H]2O[C@H](CO)[C@@H](O)[C@H]2O)c1O` [mizoribine]: in series [4], the plasma half life result is “a few hours”. In addition, the viability at 1 µM in the series on CLL cells [2] was 55%. In addition, the viability at 10 µM in the series on CLL cells [2] was 45%. Besides, the IC50 in series [3] (Homo sapiens, K562, 48 hours of incubation) was ~100 µM; in series [3] (Homo sapiens, K562, 72 hours of incubation), ~10 µM.

In the case of `CC(=O)O[C@H]1C(=O)[C@@]2(C)[C@H]([C@H](OC(=O)c3ccccc3)[C@]3(O)C[C@H](OC(=O)[C@H](O)[C@@H](NC(=O)c4ccccc4)c4ccccc4)C(C)=C1C3(C)C)[C@]1(OC(C)=O)CO[C@@H]1C[C@@H]2O` [paclitaxel], the “α-tubulin in the particulate fraction after treatment” value is on record as “most of the α-tubulin shifted to the particulate fraction; also recorded: a shift of α-tubulin to the particulate-bound fraction” with activated PBL, “only a minimal increase of α-tubulin in the particulate fraction; also recorded: did not change this pattern” in series [5] and “nearly complete relocalization of α-tubulin to the particulate fraction” in the series on CLL cells [6].
